These results are taken from US11976083B2, “Inhibitors of peptidylarginine deiminases” (Gilead Sciences, Inc., priority 2020, dated 2024).

The experiment addresses T1, human PAD4 (Homo sapiens, UniProt Q9UM07).
T1 construct: human PAD4 (NM_012387), A2-P663, was PCR amplified; His-SUMO (N, cleaved yes); made in house; host or cells: E. coli BL21(DE3)
Put plainly: In vitro PAD4 BAEE biochemical assay. Conditions: BAEE substrate 3 mM, 5 nM PAD4, 2 mM calcium chloride; geometric mean of multiple experiments. The procedure, abridged:
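Recombinant human PAD4 (5 nM final) with 2 mM CaCl2 was preincubated with compound 30 min at 25 °C in MOPS buffer pH 7.6, then reacted with 3 mM BAEE for 2 h at 25 °C. After EDTA stop, released ammonia was detected by o-phthalaldehyde/DTT fluorescence (ex 405/em 535 nm); IC50 from four-parameter fit, geometric mean.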

What is called IC50 is the concentration that gives 50% inhibition.

T1 sequence (Q9UM07 2-663): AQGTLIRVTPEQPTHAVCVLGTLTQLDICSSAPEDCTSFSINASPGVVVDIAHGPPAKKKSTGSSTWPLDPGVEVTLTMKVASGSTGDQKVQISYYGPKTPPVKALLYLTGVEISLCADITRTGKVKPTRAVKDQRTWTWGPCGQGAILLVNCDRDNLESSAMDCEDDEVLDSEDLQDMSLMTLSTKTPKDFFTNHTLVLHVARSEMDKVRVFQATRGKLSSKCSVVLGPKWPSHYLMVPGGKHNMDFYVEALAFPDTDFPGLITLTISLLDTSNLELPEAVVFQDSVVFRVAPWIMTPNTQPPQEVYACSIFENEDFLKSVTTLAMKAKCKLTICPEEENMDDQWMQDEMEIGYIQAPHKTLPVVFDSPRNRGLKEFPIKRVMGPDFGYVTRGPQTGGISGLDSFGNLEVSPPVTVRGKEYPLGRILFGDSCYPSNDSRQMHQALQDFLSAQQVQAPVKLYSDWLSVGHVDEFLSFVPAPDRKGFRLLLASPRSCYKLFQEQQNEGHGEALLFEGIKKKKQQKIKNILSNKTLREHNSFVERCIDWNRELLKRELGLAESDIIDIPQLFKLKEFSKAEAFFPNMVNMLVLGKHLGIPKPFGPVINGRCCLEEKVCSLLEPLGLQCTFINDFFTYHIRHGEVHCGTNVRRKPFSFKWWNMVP

`COc1cc(C(=O)N2[C@H]3CC[C@@H]2[C@H](N)C3)cc2nc(-c3cc4ccc5nc4n3C[C@H]3[C@@H](COCCC(=O)N[C@@H]5C)C3(C)C)n(C)c12` (single isomer, unassigned) [Example 11, (3˜{S},5˜{R},12˜{R})-18-[5-[(1˜{R},2˜{R},4˜{S})-2-amino-7-azabicyclo[2.2.1]heptane-7-carbonyl]-7-methoxy-1-methyl-benzimidazol-2-yl]-4,4,12-trimethyl-7-oxa-1,11,20-triazatetracyclo[11.5.2.0^{3,5}.0^{16,19}]icosa-13(20),14,16(19),7-tetraen-10-one]: the IC50 was found to be 251 nM.
As to `COc1cc(C(=O)N2C[C@H](N)[C@@H]3CC[C@H]2C3)cc2nc(-c3cc4ccc5nc4n3CC(F)(F)CCCc3cncc(F)c3C(=O)N[C@@H]5C)n(C)c12` [Example 446, (2~{R})-17-[5-[(1~{S},4~{R},5~{R})-4-amino-2-azabicyclo[3.2.1]octane-2-carbonyl]-7-methoxy-1-methyl-benzimidazol-2-yl]-6,14,14-trifluoro-2-methyl-3,8,16,22-tetrazatetracyclo[14.5.2.0^{5,10}.0^{19,23}] tricosa-1(22),5(10),6,8,17,19(23),20-heptaen-4-one], the IC50 came out at 38 nM.
In the case of `C[C@H]1NC(=O)[C@@H]2C[C@@]2(F)CCCCCn2c(-c3nc4cc(C(=O)N5C[C@H](N)[C@@H]6CC[C@H]5C6)cc(F)c4n3C3C[C@H]3F)cc3ccc1nc32` (stereo partly shown) [Example 952, (2~{R},5~{S},7~{S})-14-[5-[(1~{S},4~{R},5~{R})-4-amino-2-azabicyclo[3.2.1]octane-2-carbonyl]-7-fluoro-1-[(1~{R},2~{R})-2-fluorocyclopropyl]benzimidazol-2-yl]-7-fluoro-2-methyl-3,13,19-triazatetracyclo [11.5.2.0^{5,7}.0^{16,20}] icosa-1(19),14,16(20),17-tetraen-4-one], the IC50 came out at 21 nM.
`COc1cc(C(=O)N2CC[C@@H](OC)[C@@H](N)C2)cc2nc(-c3cc4ccc5nc4n3CCCCCC[C@@](C)(c3ccccn3)C(=O)N[C@@H]5C)n(C)c12` [Example 862, (8~{S},11~{R})-17-[5-[(3~{S}, 4~{R})-3-amino-4-methoxy-piperidine-1-carbonyl]-7-methoxy-1-methyl-benzimidazol-2-yl]-8,11-dimethyl-8-(2-pyridyl)-1,10,19-triazatricyclo[10.5.2.0^{15,18}] nonadeca-12(19), 13,15(18),16-tetraen-9-one]: the IC50 is 78 nM.
Then `COc1cc(C(=O)N2CC[C@@H](OC)[C@@H](N)C2)cc2nc(-c3cc4ccc5nc4n3CC(F)(F)CCC[C@@H]3C[C@@]3(C)C(=O)N[C@@H]5C)n(C)c12` [Example 585, (2~{R},5~{R},7~{R})-14-[5-[(3~{S},4~{R})-3-amino-4-methoxy-piperidine-1-carbonyl]-7-methoxy-1-methyl-benzimidazol-2-yl]-11,11-difluoro-2,5-dimethyl-3,13,19-triazatetracyclo[11.5.2.0^ {5,7}.0^{16,20}]icosa-1(19),14,16(20),17-tetraen-4-one], with 74 nM; and `CO[C@@H]1CCN(C(=O)c2cc(F)c3c(c2)nc(-c2cc4ccc5nc4n2CCCCCc2nc4ccsc4cc2C(=O)N[C@@H]5C)n3C2CC2)C[C@@H]1N` [Example 797, (2~{R})-20-[5-[(3~{S},4~{R})-3-amino-4-methoxy-piperidine-1-carbonyl]-1-cyclopropyl-7-fluoro-benzimidazol-2-yl]-2-methyl-8-thia-3,12,19,25-tetrazapentacyclo[17.5.2.0^ {5,13}.0^{7,11}.0^{22,26}] hexacosa-1(24),5(13), 6,9,11,20,22,25-octaen-4-one], with 16 nM; and `CO[C@@H]1CCN(C(=O)c2cc(F)c3c(c2)nc(-c2cc4ccc5nc4n2CC(F)(F)CCC[C@]2(F)C[C@H]2C(=O)N[C@@H]5C)n3C2CC2)C[C@@H]1N` [Example 700, (2~{R},5~{S},7~{S})-14-[5-[(3~{S},4~{R})-3-amino-4-methoxy-piperidine-1-carbonyl]-1-cyclopropyl-7-fluoro-benzimidazol-2-yl]-7,11,11-trifluoro-2-methyl-3,13,19-triazatetracyclo[11.5.2.0^ {5,7}.0^{16,20}]icosa-1(19),14,16(20),17-tetraen-4-one], with 22 nM.
The value for `C[C@@H]1c2ccc3cc(-c4nc5cc(C(=O)N6CCC[C@@H](N)[C@H]6C)cc(F)c5n4C4CC4)n(c3n2)CCCCCc2nc3ccccc3cc2C(=O)N1C` [Example 832, (2~{R})-21-[5-[(2~{R},3~{R})-3-amino-2-methyl-piperidine-1-carbonyl]-1-cyclopropyl-7-fluoro-benzimidazol-2-yl]-2,3-dimethyl-3,13,20,26-tetrazapentacyclo[18.5.2.0^ {5,14}.0^{7,12}.0^ {23,27}]heptacosa-1(26), 5(14),6,8,10,12,21,23(27), 24-nonaen-4-one] was 13 nM; that for `COc1cc(C(=O)N[C@@H]2CNC[C@@H]3C[C@@H]32)cc2nc(-c3cc4ccc5nc4n3CCCCCCC(C)(C)C(=O)N[C@@H]5C)n(C)c12` [Example 202, ~{N}-[(1~{R},5~{S},6~{S})-3-azabicyclo[4.1.0]heptan-5-yl]-7-methoxy-1-methyl-2-[(11~{R})-8,8,11-trimethyl-9-oxo-1,10,19-triazatricyclo[10.5.2.0^{15,18}]nonadeca-12(19),13,15(18),16-tetraen-17-yl]benzimidazole-5-carboxamide] was 5130 nM; that for `COc1cc(C(=O)N2C[C@H](N)[C@@H]3CC[C@H]2C3)cc2nc(-c3cc4ccc5nc4n3CCCCCCCCN(C(C)=O)[C@@H]5C)n(C)c12` [Example 908] was 151 nM.
The value for `COc1cc(C(=O)N2[C@H]3CC[C@@H]2[C@H](N)C3)cc2nc(-c3cc4ccc5cc4n3CCCCCCCC(=O)N[C@@H]5C)n(C)c12` [Example 215, (11˜{R})-17-[5-[(1˜{R},2˜{R},4˜{S})-2-amino-7-azabicyclo[2.2.1]heptane-7-carbonyl]-7-methoxy-1-methyl-benzimidazol-2-yl]-11-methyl-1,10-diazatricyclo[10.5.2.0^{15,18}]nonadeca-12(19),13,15(18),16-tetraen-9-one] was 20 nM.
`COc1cc(C(=O)N[C@H]2CNCC[C@@H]2F)cc2nc(-c3cc4ccc5nc4n3CC/C=C\C[C@H]3C[C@H]3C(=O)N[C@@H]5C)n(C)c12` [Example 516, ~{N}-[(3~{S},4~ {S})-4-fluoro-3-piperidyl]-7-methoxy-1-methyl-2-[(2~{R},5~{R},7~ {S},9~{Z})-2-methyl-4-oxo-3,13,19-triazatetracyclo[11.5.2.0^ {5,7}.0^{16,20}]icosa-1(19),9,14,16(20),17-pentaen-14-yl]benzimidazole-5-carboxamide]: the IC50 stood at 48 nM.
With `C[C@H]1NC(=O)[C@](F)(c2cccc(Cl)n2)CCCCCCn2c(-c3nc4cc(C(=O)N5C[C@H](N)[C@@H]6CC[C@H]5C6)cc(F)c4n3C3CC3)cc3ccc1nc32` [Example 481, (8~{R},11~{R})-17-[5-[(1~{S},4~{R},5~{R})-4-amino-2-azabicyclo[3.2.1]octane-2-carbonyl]-1-cyclopropyl-7-fluoro-benzimidazol-2-yl]-8-(6-chloro-2-pyridyl)-8-fluoro-11-methyl-1,10,19-triazatricyclo[10.5.2.0^{15,18}]nonadeca-12(19),13,15(18),16-tetraen-9-one], the IC50 was 231 nM.
